Test results: ChEMBL document CHEMBL5143591, “Human Neuraminidases: Structures and Stereoselective Inhibitors” (J Med Chem, 2022)

Key:
Sialidase-4 = molecular target: T1, Sialidase-4 (Homo sapiens, UniProt Q8WWR8); experiment: Inhibition of human NEU4
T1 sequence (Q8WWR8 whole entry): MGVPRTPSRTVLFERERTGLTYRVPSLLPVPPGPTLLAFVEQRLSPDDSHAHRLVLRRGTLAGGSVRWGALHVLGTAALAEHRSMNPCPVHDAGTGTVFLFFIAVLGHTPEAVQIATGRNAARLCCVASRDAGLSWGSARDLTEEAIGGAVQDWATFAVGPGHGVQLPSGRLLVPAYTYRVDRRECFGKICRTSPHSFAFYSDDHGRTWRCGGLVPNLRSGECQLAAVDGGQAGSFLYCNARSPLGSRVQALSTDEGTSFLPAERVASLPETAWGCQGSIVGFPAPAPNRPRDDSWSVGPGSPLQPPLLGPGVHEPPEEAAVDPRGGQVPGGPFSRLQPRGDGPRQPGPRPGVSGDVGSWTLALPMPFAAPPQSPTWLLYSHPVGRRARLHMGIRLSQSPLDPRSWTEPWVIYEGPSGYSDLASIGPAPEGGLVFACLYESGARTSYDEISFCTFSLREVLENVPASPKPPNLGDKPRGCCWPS

Sialidase-3 = molecular target: T2, Sialidase-3 (Homo sapiens, UniProt Q9UQ49); experiment: Inhibition of human NEU3
T2 sequence (Q9UQ49 whole entry): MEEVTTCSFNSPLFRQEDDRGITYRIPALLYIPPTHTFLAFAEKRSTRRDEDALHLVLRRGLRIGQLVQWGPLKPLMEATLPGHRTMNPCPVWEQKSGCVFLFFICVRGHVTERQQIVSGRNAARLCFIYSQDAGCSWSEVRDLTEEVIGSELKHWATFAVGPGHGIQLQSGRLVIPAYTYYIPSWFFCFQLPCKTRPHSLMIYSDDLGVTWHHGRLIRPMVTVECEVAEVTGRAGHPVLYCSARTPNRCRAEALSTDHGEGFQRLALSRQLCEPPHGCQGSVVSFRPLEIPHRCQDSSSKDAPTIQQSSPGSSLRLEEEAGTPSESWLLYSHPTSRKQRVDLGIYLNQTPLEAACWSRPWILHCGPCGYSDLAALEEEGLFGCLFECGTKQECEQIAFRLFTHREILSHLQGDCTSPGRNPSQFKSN

Sialidase-1 = Sialidase-1 (Homo sapiens, UniProt Q99519); experiment: Inhibition of human NEU1

Measured: IC50

CC(=O)N[C@H]1[C@H]([C@H](O)[C@H](O)CO)O[C@](O)(C(=O)O)C[C@@H]1O
> 500 µM: all assays above
